The test system of this series is rodent carcinogenicity bioassays, tumor incidence. Put plainly: CCRIS carcinogenicity studies. An outline of the steps:
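NCI-built, expert-reviewed records of carcinogenicity and related test outcomes (mutagenicity, tumor promotion/inhibition) compiled from published and report sources, historical span 1985-2011, not updated.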

Calls of active or inactive are those of the source. The rule behind the calls is not given here.

`CN(N=O)c1ccccc1`: the carcinogen call runs as follows: (Species: HAMSTER, Strain/Sex: SYRIAN/FEMALE, Route: GAVAGE, Dose: 0, 5 MG/KG 1/WK FOR 50 WK (TOTAL DOSE: 0; 1.8 MMOL) (STUDY DURATION: LIFETIME), Dose: 0, 5 MG/KG 1/WK FOR 50 WK (TOTAL DOSE: 0; 1.8 MMOL) (STUDY DURATION: LIFETIME), Tumor Site: Type of Lesion: LIVER: CHOLANGIOMA) “active; positive”; (Species: MOUSE, Strain/Sex: SWISS/MALE,FEMALE, Route: ORAL, Dose: 0.070 G/L IN DRINKING WATER FOR 28 WK, Tumor Site: Type of Lesion: LUNG: ADENOMA) “active; positive”; (Species: RAT, Strain/Sex: ALBINO/MALE,FEMALE, Route: ORAL, Dose: 2.0 MG IN 10 ML DRINKING WATER (AVE) 5/WK FOR 52 WK, Tumor Site: Type of Lesion: ESOPHAGUS: PAPILLOMA, SQUAMOUS CELL CARCINOMA, FORESTOMACH: PAPILLOMA, SQUAMOUS CELL CARCINOMA, MOUTH: PAPILLOMA, SQUAMO, Tumor Site: Type of Lesion: ESOPHAGUS: PAPILLOMA, SQUAMOUS CELL CARCINOMA, FORESTOMACH: PAPILLOMA, SQUAMOUS CELL CARCINOMA, MOUTH: PAPILLOMA, SQUAMO) “active; positive”; (Species: RAT, Strain/Sex: STRAIN-BD, Route: ORAL, Dose: 14 MG/KG/D IN DIET FOR 250 D (AVE TOTAL DOSE: 3.4 G/KG), Tumor Site: Type of Lesion: ESOPHAGUS: SQUAMOUS CELL CARCINOMA) “active; positive”; (Species: RAT, Strain/Sex: STRAIN-CB/MALE,FEMALE, Route: ORAL, Dose: 5 MG AS 0.2% FOR 7 MO THEN 2.5 MG AS 0.1% IN DRINKING WATER 1/D, 6/WK, Tumor Site: Type of Lesion: ESOPHAGUS: BENIGN TUMOR OR MALIGNANT TUMOR) “active; positive”.

For the compound `OC[P+](CO)(CO)CO`, the carcinogen call (Species: MOUSE, Strain/Sex: B6C3F1/FEMALE, Route: GAVAGE, Dose: 0, 5, 10 MG/KG IN DISTILLED WATER 5 D/WK FOR 103 WK, Dose: 0, 5, 10 MG/KG IN DISTILLED WATER 5 D/WK FOR 103 WK) was “inactive; negative”; the carcinogen call (Species: MOUSE, Strain/Sex: B6C3F1/FEMALE, Route: GAVAGE, Dose: 0, 15, 30 MG/KG IN DISTILLED WATER 5 D/WK FOR 103 WK, Dose: 0, 15, 30 MG/KG IN DISTILLED WATER 5 D/WK FOR 103 WK) is “inactive; negative”; the carcinogen call (Species: MOUSE, Strain/Sex: B6C3F1/MALE, Route: GAVAGE, Dose: 0, 5, 10 MG/KG IN DISTILLED WATER 5 D/WK FOR 103 WK, Dose: 0, 5, 10 MG/KG IN DISTILLED WATER 5 D/WK FOR 103 WK) was “inactive; negative”; the carcinogen call (Species: MOUSE, Strain/Sex: B6C3F1/MALE, Route: GAVAGE, Dose: 0, 7.5, 15 MG/KG IN DISTILLED WATER 5 D/WK FOR 103 WK, Dose: 0, 7.5, 15 MG/KG IN DISTILLED WATER 5 D/WK FOR 103 WK) is “inactive; negative”; the carcinogen call (Species: RAT, Strain/Sex: F344/FEMALE, Route: GAVAGE, Dose: 0, 3.75, 7.5 MG/KG IN DISTILLED WATER 5 D/WK FOR 103 WK, Dose: 0, 3.75, 7.5 MG/KG IN DISTILLED WATER 5 D/WK FOR 103 WK) is “inactive; negative”; the carcinogen call (Species: RAT, Strain/Sex: F344/FEMALE, Route: GAVAGE, Dose: 0, 5, 10 MG/KG IN DISTILLED WATER 5 D/WK FOR 104 WK, Dose: 0, 5, 10 MG/KG IN DISTILLED WATER 5 D/WK FOR 104 WK) is “inactive; negative”. Also, the carcinogen call is, setting by setting: (Species: RAT, Strain/Sex: F344/MALE, Route: GAVAGE, Dose: 0, 3.75, 7.5 MG/KG IN DISTILLED WATER 5 D/WK FOR 103 WK, Dose: 0, 3.75, 7.5 MG/KG IN DISTILLED WATER 5 D/WK FOR 103 WK) “inactive; negative”; (Species: RAT, Strain/Sex: F344/MALE, Route: GAVAGE, Dose: 0, 5, 10 MG/KG IN DISTILLED WATER 5 D/WK FOR 104 WK, Dose: 0, 5, 10 MG/KG IN DISTILLED WATER 5 D/WK FOR 104 WK) “inactive; negative”.

As for `Clc1ccc(C(c2ccc(Cl)cc2)C(Cl)Cl)cc1`, the carcinogen call reads like this: (Species: MOUSE, Strain/Sex: B6C3F1/FEMALE, Route: ORAL, Dose: 0, 411, 822 PPM IN DIET FOR 78 WK (STUDY DURATION: 93 WK), Dose: 0, 411, 822 PPM IN DIET FOR 78 WK (STUDY DURATION: 93 WK)) “inactive; negative”; (Species: MOUSE, Strain/Sex: B6C3F1/MALE, Route: ORAL, Dose: 0, 411, 822 PPM IN DIET FOR 78 WK (STUDY DURATION: 93 WK), Dose: 0, 411, 822 PPM IN DIET FOR 78 WK (STUDY DURATION: 93 WK)) “inactive; negative”; (Species: MOUSE, Strain/Sex: CF-1/MALE,FEMALE, Route: ORAL, Dose: 250 PPM IN DIET, Tumor Site: Type of Lesion: LUNG) “active; positive”; (Species: RAT, Strain/Sex: OSBORNE-MENDEL/FEMALE, Route: ORAL, Dose: 0, 850, 1700 PPM IN DIET FOR 78 WK (STUDY DURATION: 113 WK), Dose: 0, 850, 1700 PPM IN DIET FOR 78 WK (STUDY DURATION: 113 WK)) “inactive; negative”; (Species: RAT, Strain/Sex: OSBORNE-MENDEL/MALE, Route: ORAL, Dose: 0, 1647, 3294 PPM IN DIET FOR 78 WK (STUDY DURATION: 113 WK), Dose: 0, 1647, 3294 PPM IN DIET FOR 78 WK (STUDY DURATION: 113 WK), Tumor Site: Type of Lesion: THYROID GLAND: FOLLICULAR CELL CARCINOMA OR ADENOMA) “equivocal”.

Regarding `C=C(C)C#N`, the carcinogen call was “inactive; negative” (Species: MOUSE, Strain/Sex: B6C3F1/FEMALE, Route: GAVAGE, Dose: 0, 1.5, 3, 6 MG/KG 5 D/WK FOR 104-105 WK (STUDY DURATION: 104-105 WK), Dose: 0, 1.5, 3, 6 MG/KG 5 D/WK FOR 104-105 WK (STUDY DURATION: 104-105 WK)); “inactive; negative” (Species: MOUSE, Strain/Sex: B6C3F1/MALE, Route: GAVAGE, Dose: 0, 1.5, 3, 6 MG/KG 5 D/WK FOR 104-105 WK (STUDY DURATION: 104-105 WK), Dose: 0, 1.5, 3, 6 MG/KG 5 D/WK FOR 104-105 WK (STUDY DURATION: 104-105 WK)); “inactive; negative” (Species: RAT, Strain/Sex: F344/FEMALE, Route: GAVAGE, Dose: 0, 3, 10, 30 MG/KG 5 D/WK FOR 104-105 WK (STUDY DURATION: 104-105 WK), Dose: 0, 3, 10, 30 MG/KG 5 D/WK FOR 104-105 WK (STUDY DURATION: 104-105 WK)); “inactive; negative” (Species: RAT, Strain/Sex: F344/MALE, Route: GAVAGE, Dose: 0, 3, 10, 30 MG/KG 5 D/WK FOR 104-105 WK (STUDY DURATION: 104-105 WK), Dose: 0, 3, 10, 30 MG/KG 5 D/WK FOR 104-105 WK (STUDY DURATION: 104-105 WK)).

Turning to `Nc1cc2c3ccccc3ccc2c2ccccc12`, the carcinogen call was “inactive; negative” (Species: MOUSE, Strain/Sex: SWISS/FEMALE, Route: INTRAPERITONEAL, Dose: 0, 100 NMOL (TOTAL DOSE) 1/7, 2/7 AND 4/7 ADMINISTERED ON DAYS 1, 8 AND 15 OF LIFE RESPECTIVELY (STUDY DURATION: 32 WK)) and “inactive; negative” (Species: MOUSE, Strain/Sex: SWISS/MALE, Route: INTRAPERITONEAL, Dose: 0, 100 NMOL (TOTAL DOSE) 1/7, 2/7 AND 4/7 ADMINISTERED ON DAYS 1, 8 AND 15 OF LIFE RESPECTIVELY (STUDY DURATION: 32 WK)).

Consider `Cc1cc(=O)n(-c2ccccc2)n1C`, for which the carcinogen call (Species: RAT, Strain/Sex: SPRAGUE-DAWLEY/MALE, Route: ORAL, Dose: 0, 0.535% IN DIET FOR 117 WK, Tumor Site: Type of Lesion: KIDNEY) is “active; positive”.

In the case of `Oc1cccc(O)c1`, the carcinogen call (Species: MOUSE, Strain/Sex: B6C3F1/FEMALE, Route: GAVAGE, Dose: 0, 112, 225 MG/KG IN DEIONIZED WATER 5 D/WK FOR 104 WK (STUDY DURATION: 104 WK), Dose: 0, 112, 225 MG/KG IN DEIONIZED WATER 5 D/WK FOR 104 WK (STUDY DURATION: 104 WK)) is “inactive; negative”; the carcinogen call (Species: MOUSE, Strain/Sex: B6C3F1/MALE, Route: GAVAGE, Dose: 0, 112, 225 MG/KG IN DEIONIZED WATER 5 D/WK FOR 104 WK (STUDY DURATION: 104 WK), Dose: 0, 112, 225 MG/KG IN DEIONIZED WATER 5 D/WK FOR 104 WK (STUDY DURATION: 104 WK)) is “inactive; negative”; the carcinogen call (Species: RAT, Strain/Sex: F344/FEMALE, Route: GAVAGE, Dose: 0, 50, 100, 150 MG/KG IN DEIONIZED WATER 5 D/WK FOR 104 WK (STUDY DURATION: 104 WK), Dose: 0, 50, 100, 150 MG/KG IN DEIONIZED WATER 5 D/WK FOR 104 WK (STUDY DURATION: 104 WK)) is “inactive; negative”; the carcinogen call (Species: RAT, Strain/Sex: F344/MALE, Route: GAVAGE, Dose: 0, 112, 225 MG/KG IN DEIONIZED WATER 5 D/WK FOR 104 WK (STUDY DURATION: 104 WK), Dose: 0, 112, 225 MG/KG IN DEIONIZED WATER 5 D/WK FOR 104 WK (STUDY DURATION: 104 WK)) was “inactive; negative”.

The values above are taken from PubChem BioAssay AID1259411 (Chemical Carcinogenesis Research Information System (CCRIS), 2018).
